Data taken from ChEMBL document CHEMBL2331344, “Pharmacological chaperones as therapeutics for lysosomal storage diseases” (J Med Chem, 2013).
Values belong to the compound of their own block, whether it stands above or below them. Non-standard residues stand in square brackets, D forms with d. Residues, ends and D or L forms follow the SMILES beside them. *: point of attachment. Palmitoyl = CCCCCCCCCCCCCCCC(=O)*; Dap = NC[C@H](N)C(=O)O

Tests used:
Homo sapiens [1] = species on record: Homo sapiens; assay: Induction of beta hexosaminidase activity in patient derived cell-line at 50 uM relative to control
[2] = Non competitive inhibition of beta hexosaminidase (unknown origin); design: species or system Homo sapiens
Beta-galactosidase = biological target: T1, Beta-galactosidase (Homo sapiens, UniProt P16278); assay: Inhibition of human beta galactosidase
T1 sequence (P16278 whole entry): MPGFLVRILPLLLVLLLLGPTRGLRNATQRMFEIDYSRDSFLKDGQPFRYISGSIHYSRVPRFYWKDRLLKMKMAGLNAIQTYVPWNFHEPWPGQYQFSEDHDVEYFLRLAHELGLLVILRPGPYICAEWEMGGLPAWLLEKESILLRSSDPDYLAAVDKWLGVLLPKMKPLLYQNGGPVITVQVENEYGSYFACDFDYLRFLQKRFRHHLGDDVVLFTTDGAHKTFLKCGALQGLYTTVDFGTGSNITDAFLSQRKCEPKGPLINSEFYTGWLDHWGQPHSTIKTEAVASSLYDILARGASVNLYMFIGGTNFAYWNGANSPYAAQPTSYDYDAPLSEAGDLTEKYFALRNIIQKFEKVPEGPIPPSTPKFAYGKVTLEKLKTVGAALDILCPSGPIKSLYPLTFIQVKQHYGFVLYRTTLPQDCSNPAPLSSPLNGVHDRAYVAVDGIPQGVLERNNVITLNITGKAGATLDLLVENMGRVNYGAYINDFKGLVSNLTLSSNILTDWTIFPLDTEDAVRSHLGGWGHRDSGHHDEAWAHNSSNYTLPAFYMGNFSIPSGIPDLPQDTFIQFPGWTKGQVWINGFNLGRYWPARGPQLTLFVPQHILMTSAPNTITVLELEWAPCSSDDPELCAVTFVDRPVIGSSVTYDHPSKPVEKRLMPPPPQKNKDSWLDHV

[3] = system: T2, Lysosomal acid glucosylceramidase (Homo sapiens), P04062 [N409S]; assay: Induction of beta glucosidase N370S mutant activity in primary skin fibroblast derived from Gaucher disease patient at 20 uM after 5 days relative to control
T2 sequence (whole entry): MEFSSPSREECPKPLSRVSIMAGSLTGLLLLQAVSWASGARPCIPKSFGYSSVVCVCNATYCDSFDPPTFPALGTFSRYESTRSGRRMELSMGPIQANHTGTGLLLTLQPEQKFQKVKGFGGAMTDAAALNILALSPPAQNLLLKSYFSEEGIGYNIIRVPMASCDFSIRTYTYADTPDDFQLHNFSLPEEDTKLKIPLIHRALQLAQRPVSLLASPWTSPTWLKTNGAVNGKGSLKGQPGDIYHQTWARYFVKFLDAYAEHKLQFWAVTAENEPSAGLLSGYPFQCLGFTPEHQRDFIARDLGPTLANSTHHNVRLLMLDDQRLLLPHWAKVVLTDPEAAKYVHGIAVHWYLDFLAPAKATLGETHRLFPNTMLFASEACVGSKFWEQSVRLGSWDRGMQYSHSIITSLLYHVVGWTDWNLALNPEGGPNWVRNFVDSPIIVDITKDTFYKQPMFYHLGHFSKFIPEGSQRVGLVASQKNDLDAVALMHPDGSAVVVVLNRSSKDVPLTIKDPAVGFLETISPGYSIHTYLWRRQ

Mus musculus [4] = assay: Induction of beta glucosidase L444P mutant in mouse brain administered with drinking water measured after 4 weeks relative to control; type: functional
[5] = system: T3, Alpha-galactosidase A (Homo sapiens), P06280 [R301Q]; assay: Induction of alpha galactosidase A R301Q mutant activity in lymphoblasts derived from Fabry disease patient at 100 uM after 4 days relative to control
T3 sequence (whole entry): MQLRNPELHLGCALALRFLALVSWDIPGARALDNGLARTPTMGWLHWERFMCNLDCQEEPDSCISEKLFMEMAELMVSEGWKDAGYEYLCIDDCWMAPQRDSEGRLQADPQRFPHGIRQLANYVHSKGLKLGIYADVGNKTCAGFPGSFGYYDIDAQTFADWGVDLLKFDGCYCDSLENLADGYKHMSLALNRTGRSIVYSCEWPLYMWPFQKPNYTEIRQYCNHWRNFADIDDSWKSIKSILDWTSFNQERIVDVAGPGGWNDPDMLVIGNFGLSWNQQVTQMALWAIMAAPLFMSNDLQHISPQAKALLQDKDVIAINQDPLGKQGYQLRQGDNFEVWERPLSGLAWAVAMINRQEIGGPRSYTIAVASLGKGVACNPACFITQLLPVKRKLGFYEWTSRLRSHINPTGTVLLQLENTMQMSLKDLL

Mus musculus [6] = assay: Induction of human alpha galactosidase A R301Q mutant activity expressed in C57BL/6 transgenic alpha galactosidase A knockout mouse at 30 mg/kg/day, po administered for 2 weeks measured in liver relative to control; type: functional
Mus musculus [7] = assay: Induction of human alpha galactosidase A R301Q mutant activity expressed in C57BL/6 transgenic alpha galactosidase A knockout mouse at 3 mg/kg/day, po administered for 2 weeks measured in liver relative to control; type: functional
Mus musculus [8] = assay: Induction of human alpha galactosidase A R301Q mutant activity expressed in C57BL/6 transgenic alpha galactosidase A knockout mouse at 30 mg/kg/day, po administered for 2 weeks measured in spleen relative to control; type: functional
Mus musculus [9] = assay: Induction of human alpha galactosidase A R301Q mutant activity expressed in C57BL/6 transgenic alpha galactosidase A knockout mouse at 3 mg/kg/day, po administered for 2 weeks measured in spleen relative to control; type: functional
Mus musculus [10] = assay: Induction of in human alpha galactosidase A R301Q mutant activity expressed in C57BL/6 transgenic alpha galactosidase A knockout mouse at 30 mg/kg/day, po administered for 2 weeks measured in kidney relative to control; type: functional
Mus musculus [11] = assay: Induction of human alpha galactosidase A R301Q mutant activity expressed in C57BL/6 transgenic alpha galactosidase A knockout mouse at 3 mg/kg/day, po administered for 2 weeks measured in kidney relative to control; type: functional
Mus musculus [12] = assay: Induction of human alpha galactosidase A R301Q mutant activity expressed in C57BL/6 transgenic alpha galactosidase A knockout mouse at 30 mg/kg/day, po administered for 2 weeks measured in heart relative to control; type: functional
Mus musculus [13] = assay: Induction of human alpha galactosidase A R301Q mutant activity expressed in C57BL/6 transgenic alpha galactosidase A knockout mouse at 3 mg/kg/day, po administered for 2 weeks measured in heart relative to control; type: functional
[14] = biological target: T4, Palmitoyl-protein thioesterase 1 (Homo sapiens, UniProt P50897); assay: Inhibition of PPT1 (unknown origin) in cell lysates using fluorescent-based MUGSP as substrate after 1 to 3 hrs
T4 sequence (P50897 whole entry): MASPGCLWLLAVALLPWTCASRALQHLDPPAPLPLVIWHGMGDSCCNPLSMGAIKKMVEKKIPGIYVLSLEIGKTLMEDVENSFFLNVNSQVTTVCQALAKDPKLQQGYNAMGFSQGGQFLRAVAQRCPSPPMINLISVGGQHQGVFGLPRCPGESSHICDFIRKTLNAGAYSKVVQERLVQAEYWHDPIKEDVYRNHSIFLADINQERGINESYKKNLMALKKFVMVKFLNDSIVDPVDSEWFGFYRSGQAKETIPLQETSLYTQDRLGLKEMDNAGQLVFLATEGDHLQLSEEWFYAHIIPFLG

Homo sapiens [15] = species on record: Homo sapiens; assay: Induction of beta-hexosaminidase S in fibroblasts derived from ISD patient after 5 days by Western blotting analysis relative to control
Homo sapiens [16] = species on record: Homo sapiens; assay: Induction of beta-hexosaminidase S in fibroblasts derived from ISD patient at 10 uM after 5 days by Western blotting analysis relative to control
Homo sapiens [17] = species on record: Homo sapiens; assay: Induction of beta-hexosaminidase S activity in fibroblasts derived from ISD patient at 100 uM after 5 days by Western blotting analysis relative to control
Homo sapiens [18] = species on record: Homo sapiens; assay: Induction of beta glucosidase G202R mutant activity in primary skin fibroblast derived from patient after 5 days relative to control
[19] = system: T2, Lysosomal acid glucosylceramidase (Homo sapiens), P04062 [N409S]; assay: Induction of beta glucosidase N370S mutant activity in primary skin fibroblast derived from Gaucher disease patient after 5 days relative to control
Beta-glucosidase = biological target: T5, Beta-glucosidase (Homo sapiens, UniProt Q9HCG7); assay: Inhibition of beta glucosidase (unknown origin)
T5 sequence (Q9HCG7 whole entry): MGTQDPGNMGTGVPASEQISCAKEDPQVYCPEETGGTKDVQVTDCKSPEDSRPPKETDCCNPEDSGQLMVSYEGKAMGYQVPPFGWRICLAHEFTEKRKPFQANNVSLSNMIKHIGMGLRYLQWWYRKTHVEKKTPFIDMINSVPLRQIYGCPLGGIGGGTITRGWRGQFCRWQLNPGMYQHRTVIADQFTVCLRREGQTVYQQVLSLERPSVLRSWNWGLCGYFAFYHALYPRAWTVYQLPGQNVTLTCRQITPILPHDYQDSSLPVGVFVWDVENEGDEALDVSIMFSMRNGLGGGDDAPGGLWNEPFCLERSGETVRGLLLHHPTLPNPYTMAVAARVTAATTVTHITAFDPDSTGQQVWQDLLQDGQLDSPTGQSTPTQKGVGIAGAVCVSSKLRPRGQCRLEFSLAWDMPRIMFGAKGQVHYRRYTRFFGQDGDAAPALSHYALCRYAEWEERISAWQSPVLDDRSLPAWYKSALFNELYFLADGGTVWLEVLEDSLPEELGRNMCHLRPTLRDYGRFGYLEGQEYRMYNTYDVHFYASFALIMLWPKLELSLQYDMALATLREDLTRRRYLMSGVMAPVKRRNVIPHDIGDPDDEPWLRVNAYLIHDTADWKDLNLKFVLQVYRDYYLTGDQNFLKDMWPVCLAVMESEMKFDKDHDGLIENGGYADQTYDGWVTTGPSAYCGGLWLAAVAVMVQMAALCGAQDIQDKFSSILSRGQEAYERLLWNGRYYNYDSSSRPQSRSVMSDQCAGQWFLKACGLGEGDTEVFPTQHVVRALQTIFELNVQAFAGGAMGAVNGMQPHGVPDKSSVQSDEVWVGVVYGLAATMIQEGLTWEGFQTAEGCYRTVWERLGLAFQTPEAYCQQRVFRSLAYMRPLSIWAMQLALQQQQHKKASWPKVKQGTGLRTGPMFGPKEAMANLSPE

[20] = system: T2, Lysosomal acid glucosylceramidase (Homo sapiens), P04062 [N409S]; assay: Induction of beta glucosidase N370S mutant activity in cells derived from Gaucher disease patient at 20 uM relative to control

SMILES: CCCCCCCCN[C@@H]1C=C(CO)[C@H](O)[C@H](O)[C@H]1O
- Ki (Beta-galactosidase): 0.3 µM

SMILES: CN(C)c1cccc2c(S(=O)(=O)NCCCCCCN(CCCCCCNS(=O)(=O)c3cccc4c(N(C)C)cccc34)C(=O)CCCCCCN3C[C@H](O)[C@@H](O)[C@H](O)[C@H]3CO)cccc12
- fold change (FC) [3]: 1.6

SMILES: OC[C@H]1CNC[C@@H](O)[C@@H]1O [AFEGOSTAT]
- fold change (FC) (Mus musculus [4]): 2

SMILES: O=C1c2ccccc2/C(=N/O)C1[N+](=O)[O-] (configuration not stated)
- fold change (FC) (Homo sapiens [15]): 2

SMILES: Cc1[nH]cc2c(=O)n(Cc3ccc(Cl)cc3)ncc12
- fold change (FC) (Homo sapiens [17]): 2.5

SMILES: O[C@H]1[C@H](O)[C@@H](O)CN2CC[C@H](O)[C@H]12 [CASTANOSPERMINE]
- IC50 (Beta-glucosidase): 19 µM

The next lines start with results.

- fold change (FC) (Homo sapiens [1]): 2
- Ki [2]: 2.8 µM
SMILES: CC(=O)N[C@H]1CN(Cc2ccccc2)[C@@H](CO)[C@@H]1O

- fold change (FC) [5]: 14
SMILES: OC[C@H]1NC[C@H](O)[C@@H](O)[C@H]1O
- fold change (FC) (Mus musculus [6]): 7.1
- fold change (FC) (Mus musculus [7]): 3.1
- fold change (FC) (Mus musculus [8]): 1.8
- fold change (FC) (Mus musculus [9]): 1.7
- fold change (FC) (Mus musculus [10]): 28
- fold change (FC) (Mus musculus [11]): 2
- fold change (FC) (Mus musculus [12]): 18
- fold change (FC) (Mus musculus [13]): 4

- IC50 [14]: 10 µM
SMILES: CCCCCCCCCCCCCCCC(=O)NC[C@H](NC(=O)CNC(C)=O)C(=O)N[C@H](C(=O)N[C@@H](CCCCN)C(=O)N[C@H](C(=O)N[C@@H](CCCCN)C(=O)N[C@@H](CCCCN)C(=O)O)[C@@H](C)CC)C(C)C (Ac-G[Dap](Palmitoyl)VKIKK-OH)

- fold change (FC) (Homo sapiens [16]): 3
SMILES: O=C1c2cccc3cccc(c23)C(=O)N1CCNCCN1C(=O)c2cccc3cccc(c23)C1=O

- fold change (FC) (Homo sapiens [18]): 2.7
- fold change (FC) [19]: 1.4
SMILES: O=C(CCCCCN1C[C@H](O)[C@@H](O)[C@H](O)[C@H]1CO)NC12CC3CC(CC(C3)C1)C2

- fold change (FC) [20]: 1.9
SMILES: OC[C@@H]1[C@@H](O)C(O)[C@@H](O)CN1CCCn1cc(COc2ccccc2)nn1 (single isomer, unassigned)
